Values after ≈ are worked out from the molar mass of the structure shown. Active and inactive are the calls of the source. The rule behind the calls is not given here.

Data set [1] relates to Rattus norvegicus. The data set can be described thus: Toxicity in po dosed Sprague-Dawley rat assessed as reduction in fasting plasma glucose level administered for 60 mins measured over first hour prior to OGTT. The class given is organism-based. Particulars: in vivo, 1 h.
Data set [2] has as its target T1, Hexokinase-4 (Homo sapiens, UniProt P35557).
T1 sequence (P35557 whole entry): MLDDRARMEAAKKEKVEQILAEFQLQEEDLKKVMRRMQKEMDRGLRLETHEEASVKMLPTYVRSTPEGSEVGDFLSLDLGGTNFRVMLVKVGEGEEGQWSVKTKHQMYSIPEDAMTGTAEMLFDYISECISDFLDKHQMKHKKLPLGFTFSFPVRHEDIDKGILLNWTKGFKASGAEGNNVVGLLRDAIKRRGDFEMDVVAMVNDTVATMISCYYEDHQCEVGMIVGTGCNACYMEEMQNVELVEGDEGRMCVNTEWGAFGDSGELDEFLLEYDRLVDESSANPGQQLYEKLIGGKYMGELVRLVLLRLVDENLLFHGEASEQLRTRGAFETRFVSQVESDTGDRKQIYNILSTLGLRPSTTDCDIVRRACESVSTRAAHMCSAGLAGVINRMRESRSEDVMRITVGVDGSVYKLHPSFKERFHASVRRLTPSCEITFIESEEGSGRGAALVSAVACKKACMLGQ
Description: Activation of recombinant human glucokinase assessed as formation of glucose-6-phosphate by G6PDH/NADP coupled assay

Data set [3] can be described thus: Selectivity ratio of EC50 for rat glucokinase to EC50 for human glucokinase.
Data set [4] has as its target T2, Hexokinase-4 (Rattus norvegicus, UniProt P17712).
T2 sequence (P17712 whole entry): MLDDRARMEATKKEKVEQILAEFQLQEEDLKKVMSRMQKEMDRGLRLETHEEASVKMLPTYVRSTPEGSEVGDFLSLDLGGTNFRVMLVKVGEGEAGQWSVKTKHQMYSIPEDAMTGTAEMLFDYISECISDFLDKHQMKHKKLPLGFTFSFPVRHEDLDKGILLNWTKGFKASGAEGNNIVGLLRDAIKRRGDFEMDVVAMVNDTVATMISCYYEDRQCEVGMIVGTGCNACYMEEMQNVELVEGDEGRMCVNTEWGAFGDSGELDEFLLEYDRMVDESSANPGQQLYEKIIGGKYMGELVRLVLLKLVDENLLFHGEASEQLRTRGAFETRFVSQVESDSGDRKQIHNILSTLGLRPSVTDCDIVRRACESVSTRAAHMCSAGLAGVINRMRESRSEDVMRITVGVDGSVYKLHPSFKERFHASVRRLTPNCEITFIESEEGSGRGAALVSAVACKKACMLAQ
Kind of data set: Activation of rat glucokinase.

The subject of data set [5] is Rattus norvegicus. Kind of data set: Antidiabetic activity in po dosed Sprague-Dawley rat assessed as reduction of post-prandial glucose excursion administered for 60 mins followed by glucose challenge measured up to 120 mins by OGTT. The class given is functional, organism-based.
The subject of data set [6] is Rattus norvegicus. The data set can be described thus: Toxicity in Sprague-Dawley rat assessed as hypoglycemic level at 30 to 100 mg/kg, po administered for 60 mins measured over first hour prior to OGTT. Format: organism-based. More on the design: dose 30-100 mg/kg, route oral. Particulars: in vivo, 1 h.
A short description of data set [7]: Drug excretion in bile duct-cannulated rat bile assessed as parent compound level at 5 mg/kg, iv. The class given is ADME, organism-based. More on the design: dose 5 mg/kg, route intravenous. Particulars: read-out: Drug excretion.
Data set [8] can be described thus: Intrinsic clearance in human liver microsomes. Format: ADME. Particulars: read-out: CLH.
Data set [9] deals with Rattus norvegicus. Kind of data set: Volume of distribution at steady state in female Sprague-Dawley rat at 1 mg/kg, iv and po. Format: ADME, organism-based. Particulars: in vivo. More on the design: dose 1 mg/kg, route oral.
Data set [10] can be described thus: Volume of distribution at steady state in cynomolgus monkey at 0.5 mg/kg, iv and 3 mg/kg, po. The class given is ADME, organism-based, Macaca fascicularis. Particulars: in vivo, read-out: Vdss.
Data set [11] has as its system Pancreatic islet. The data set can be described thus: Induction of 9 to 13 mM glucose-induced insulin secretion in rat dispersed pancreatic islet static culture at 0.4 to 12 uM. Format: functional.
Data set [12] can be described thus: Clearance in Beagle dog at 0.5 mg/kg, iv and 5 mg/kg, po. Format: ADME, organism-based, Canis lupus familiaris. The following applies: in vivo.
Data set [13] concerns Pancreatic islet. Kind of data set: Induction of 3 to 5 mM glucose-induced insulin secretion in rat dispersed pancreatic islet static culture at 4 to 12 uM. Format: functional.
Data set [14] in a line: Half life in cynomolgus monkey at 0.5 mg/kg, iv and 3 mg/kg, po. Format: ADME, organism-based, Macaca fascicularis. The following applies: in vivo.
The nature of data set [15]: Volume of distribution at steady state in Beagle dog at 0.5 mg/kg, iv and 5 mg/kg, po. The class given is ADME, organism-based, Canis lupus familiaris. The following applies: in vivo, read-out: Vdss.
Data set [16] has as its system Rattus norvegicus. The data set can be described thus: Volume of distribution at steady state in male Sprague-Dawley rat at 1 mg/kg, iv and po. The class given is ADME, organism-based. More on the design: dose 1 mg/kg, route oral. Particulars: in vivo.
Data set [17] in a line: Half life in female Sprague-Dawley rat at 1 mg/kg, iv and po. The class given is ADME, organism-based. The arrangement: dose 1 mg/kg, route oral. The following applies: in vivo.
Data set [18] can be described thus: Clearance in cynomolgus monkey at 0.5 mg/kg, iv and 3 mg/kg, po. Format: ADME, organism-based, Macaca fascicularis. Particulars: in vivo.
Data set [19] has as its system Pancreatic islet. The data set can be described thus: Induction of > 22 mM glucose-induced insulin secretion in rat dispersed pancreatic islet static culture at 0.4 to 12 uM. The class given is functional.
Data set [20] in a line: Half life in male Sprague-Dawley rat at 1 mg/kg, iv and po. The class given is ADME, organism-based. The arrangement: dose 1 mg/kg, route oral. Particulars: in vivo.
A short description of data set [21]: Oral bioavailability in male Sprague-Dawley rat at 1 mg/kg. The class given is ADME, organism-based. The following applies: in vivo.
A short description of data set [22]: Oral bioavailability in cynomolgus monkey at 3 mg/kg. Format: ADME, organism-based, Macaca fascicularis. Particulars: in vivo.
Data set [23] in a line: Oral bioavailability in Beagle dog at 5 mg/kg. The class given is ADME, organism-based, Canis lupus familiaris. Particulars: in vivo.
Data set [24] concerns Pancreatic islet. The data set can be described thus: Induction of 3 to 5 mM glucose-induced insulin secretion in rat dispersed pancreatic islet static culture at 0.4 to 1.2 uM. Format: functional.
The nature of data set [25]: Oral bioavailability in female Sprague-Dawley rat at 1 mg/kg. Format: ADME, organism-based. Particulars: in vivo.
Data set [26] in a line: Kinetic solubility of the compound. Format: physicochemical. Particulars: read-out: Kinetic_solubility.
Data set [27] in a line: Half life in Beagle dog at 0.5 mg/kg, iv and 5 mg/kg, po. Particulars: in vivo. The class given is ADME, organism-based, Canis lupus familiaris.
Data set [28] in a line: Drug excretion in Sprague-Dawley rat urine assessed as parent compound level at 1 mg/kg, iv. Format: ADME, organism-based. The arrangement: dose 1 mg/kg, route intravenous. The following applies: read-out: Drug excretion.

As for `Cn1ccc(NC(=O)c2cc(Oc3ccc(C(=O)N4CCC4)c(F)c3)c3c(c2)OC(C)(C)C3)n1`, the Activity entry in the data set with Rattus norvegicus [1] was “Dose-dependent effect”; in the data set with Rattus norvegicus [5], “Dose-dependent effect”; with Rattus norvegicus [6] it was < 60 mg/dL. Further, the EC50 at Hexokinase-4 [2] was found to be 0.027 µM; on Hexokinase-4 [4], 0.05 µM. In addition, the Ratio EC50 in data set [3] was < 4.

For `Cc1cnc(NC(=O)c2cc(Oc3cnc(C(=O)N(C)C)nc3)c3cc(C)oc3c2)cn1` [NERIGLIATIN], the dose excreted in [7] amounted to 2.3%; in [28], 0.26%. In data set [8], the CLint scaled is < 8 mL/min/kg. Besides, the Vdss in the data set on Rattus norvegicus [9] came to 1.1 L/kg; in the data set with Rattus norvegicus [16], 2.1 L/kg. Further, the Vd in [10] came out at 0.83 L/kg; in [15], 0.65 L/kg. For the same compound, the result with Pancreatic islet [11] and in the data set with Pancreatic islet [13] was Active. Moreover, the clearance in [12] was found to be 2.6 mL/min/kg; in data set [18] it was 9.4 mL/min/kg. The half-life was 1.8 h in [14], 1.2 h in data set [17], 4.3 h in data set [20] and 3.3 h in data set [27]. The Activity result with Rattus norvegicus [5] was “Dose-dependent effect”. Besides, the result in the data set with Pancreatic islet [19] and in the data set with Pancreatic islet [24] was inactive. In addition, the bioavailability came out at 23% in data set [21], 78% in [22], 12% in data set [23] and 77% in [25]. In addition, the solubility kinetic in data set [26] turned out to be 463 µM (≈ 200 µg/mL).

The record behind these values is ChEMBL document CHEMBL3217627, “Designing glucokinase activators with reduced hypoglycemia risk: discovery of N,N-dimethyl-5-(2-methyl-6-((5-methylpyrazin-2-yl)-carbamoyl)benzofuran-4-yloxy)pyrimidine-2-carboxamide as a clinical candidate for the treatment of type 2 diabetes mellitus” (Medchemcomm, 2011).
